# Test results taken from patent US20100069316A1, “TREATMENT FOR MULTIPLE MYELOMA” (Ares Trading S.A., priority 2006, published 2010).
# Entries after “also recorded” stand apart in the source; their conditions may differ.
# Tests used:
# Format in all cases: cell-based, human
# XG-12 myeloma cell line = experiment: Detection of apoptosis (FITC-annexin V), XG-12; settings: day 3 of culture
# Text: (§1) Apoptotic cells were detected using fluorescein isothiocyanate-labelled annexin V (FITC-annexin-V, Boehringer Mannheim). Annexin V has a high affinity for phosphatidylserine present on the outer cytoplasmic membrane of apoptotic cells. Cells were washed, labeled with FITC-annexin-V according to the manufacturer's recommendations and analyzed with a FACScan flow cytometer using Cell Quest software (Becton Dickinson, Moutain View, Calif., USA).
# (§2) Two myeloma cell lines (XG-3 and XG-12) that are sensitive to compound A (1-(4-{4-[4-(4-chlorophenyl)-pyrimidin-2-ylamino]-benzoyl}-piperazin-1-yl)-ethanone) were selected for the study. To assess the effect of compound A on myeloma cell survival, the percentage apoptotic cells was determined using binding of annexin V to apoptotic cells. The effect of compound A on the cell cycle was assessed by evaluating the percentage of cells in the S phase of the cell cycle by incorporation of BrdU-FITC. Apoptosis, cell cycle and cell numeration were evaluated daily on a four day culture period on the cell lines using the IC10, IC50 and I90 respective doses of compound A.
# XG-3 myeloma cell line [1] = experiment: Detection of apoptosis (FITC-annexin V), XG-3; settings: day 3 of culture
# Text: as §1, §2
# XG-3 myeloma cell line [2] = experiment: Cell cycle measurement (BrdU/PI, S phase), XG-3; settings: day 3 of culture
# Experimental: The cell cycle distribution of the cell lines was assessed by flow cytometry analysis by propidium iodide (PI) and bromodeoxyuridine (BrdU) double-staining. Thirty minutes before stopping the culture, BrdU (10 μM) were added to the cultures and then the cells were collected by centrifugation, washed twice in phosphate buffer saline (PBS) and fixed in 70% ethanol for 20 minutes at room temperature. After two washes with PBS, cells were resuspended in 50 μL of 3N HCl, 0.5% Tween 20 and incubated 20 minutes at 20° C. to denature DNA. The cells were then recovered by centrifugation, resuspended in 250 μL of 10 mM sodium tetraborate to neutralize the reaction, washed twice with PBS, 0.05% Tween 20, and incubated with 20 μL of anti-BrdU-FITC (BD Biosciences). After two additional washes, the cells were resuspended in 500 μL of PBS, 0.05% Tween 20 containing 10 μg/ml PI. The fluorescence of FL1-H (BrdU) and FL2-A (PI) were analyzed on a FACScan flow cytometer using Cell Quest software (Becton Dickinson).
# as §2
# [3] = system: CD138+ primary myeloma cells; experiment: Ex vivo survival of primary myeloma cells in bone marrow culture; settings: bone marrow cells of 10 myeloma patients, 5 days, 1, 3.3, 10 μM
# Experimental: (§3) Bone marrow cells from 10 patients with multiple myeloma (5 patients at diagnosis and 5 relapsing patients) were harvested and mononuclear cells isolated by ficoll hypaque centrifugation.
# (§4) At day 5, cell numbers were counted and the percentage and counts of myeloma cells were determined by FACS staining using an anti-CD138 monoclonal antibody. This made it possible to assay for viable myeloma cells as CD138 is lost on pre-apoptotic myeloma cells (Jourdan, M. et al. (1998) Br. J. Haematol., 100, 637-648). The percentage and count of CD34 hematopoietic progenitors was also determined with an anti-CD34 monoclonal antibody and FACS labeling.
# (§5) Bone marrow mononuclear cells from 5 patients with newly diagnosed multiple myeloma or from 5 patients with relapsing multiple myeloma were cultured for 5 days with culture medium and 10% fetal calf serum. […] At the end of culture, cells were counted. Viable myeloma cells were determined using FACS labeling with anti-CD138 monoclonal antibody, as well as viable hematopoietic stem cells using an anti-CD34 monoclonal antibody. Results are expressed as the percentage of viable myeloma cells, non-myeloma cells, or CD34 cells compared to the control culture group without inhibitor.
# [4] = system: non-myeloma bone marrow cells; experiment: Ex vivo survival of non-myeloma bone marrow cells; settings: bone marrow cells of 10 myeloma patients, 5 days, 1, 3.3, 10 μM
# Experimental: as §3, §4, §5
# 4 myeloma cell lines = experiment: Combination study of compound A with Velcade or melphalan, proliferation; settings: XG3, XG12, XG7, L363
# Experimental: Myeloma cells were harvested in the exponential growth phase (at day 3 after culture passage when the cell concentration is around 5×10^5 cells/ml). Cells were washed twice, cultured for 3 hours in RPMI1640 and 10% FCS, washed twice. This makes it possible to remove cell-bound growth factors (in particular recombinant IL-6). Then cells are plated in 96-well flat-bottomed microplates at various concentrations depending on their doubling time: • 5×10^3 cells/well in 100 μl for the cell lines: XG-1, XG-7 • 10^4 cells/well in […] for the cell lines: XG-2, XG-4, XG-6, XG-11, PRMI8226, L363 • 2×10^4 cells/well in 100 μl for the cell lines: XG-3, XG-12, XG-13, XG-14, XG-19, XG-20
# The culture medium used were: • PRMI1640, 10% FCS and 0.5 ng/ml of IL-6 for XG-1, XG-2, XG-3, XG-4, XG-6, XG-7, XG-11, XG-12, XG-13, XG-19, XG-20 cells • X-VIVO20 and 0.5 ng/ml IL-6 for XG-14 cells • PRMI1640 and 10% FCS for RPMI8226 and L363 cells
# The diluted compounds, DMSO or control culture medium were added in 100 μl at the start of the culture. Three culture wells were done for one compound dilution and the experiments were done twice (finally six culture wells for one compound dilution).
# Cells were cultured for 4 days. […] Cells were then extracted with a cell collector and the thymidine incorporation was determined using a beta cell counter. […]
# [5] = system: myeloma cell lines (XG-3 and XG-12); experiment: Induction of apoptosis (annexin V) in myeloma cell lines; settings: XG-3 and XG-12, IC10, IC50, IC90 doses, four day culture
# Text: as §1, §2
# [6] = XG-3, compound A at IC10 concentration
# [7] = XG-3, compound A at IC50 concentration
# [8] = XG-3, compound A at IC90 concentration
smiles,measurement,setting,value
"CC(=O)N1CCN(C(=O)c2ccc(Nc3nccc(-c4ccc(Cl)cc4)n3)cc2)CC1 [Compound A, 1-(4-{4-[4-(4-Chloro-phenyl)-pyrimidin-2-ylamino]-benzoyl}-piperazin-1-yl)-ethanone]",Annexin V (%) percentage of apoptotic cells,"XG-12 myeloma cell line; XG-12, compound A at IC50 concentration",39.5%
same,Annexin V (%) percentage of apoptotic cells,"XG-12 myeloma cell line; XG-12, compound A at IC90 concentration",79.8%
same,Annexin V (%) percentage of apoptotic cells,XG-3 myeloma cell line [1]; [6],29.2%
same,Annexin V (%) percentage of apoptotic cells,XG-3 myeloma cell line [1]; [7],30.7%
same,Annexin V (%) percentage of apoptotic cells,XG-3 myeloma cell line [1]; [8],48.2%
same,S phase (%) percentage of cells in the S phase,XG-3 myeloma cell line [2]; [6],32.1%
same,S phase (%) percentage of cells in the S phase,XG-3 myeloma cell line [2]; [7],29.2%
same,S phase (%) percentage of cells in the S phase,XG-3 myeloma cell line [2]; [8],15.3%
same,survival of primary myeloma cells,[3],inhibits the survival of primary myeloma cells
same,survival of other (non-myeloma) bone marrow cells,[4],without affecting the survival of other bone marrow cells
same,effect of combination with Melphalan on inhibition of myeloma cell proliferation,4 myeloma cell lines; Melphalan at IC10 or IC50,additive effect
same,effect of combination with Velcade on inhibition of myeloma cell proliferation,4 myeloma cell lines; Velcade at IC10 or IC50,additive effect
same,induction of apoptosis of myeloma cell lines,[5],induced apoptosis of myeloma cell lines; also recorded: dose- and time-dependent
